Experimental data taken from PMC12440886, “Inhibition of the oncogenic channel Kv10.1 by the antipsychotic drug penfluridol” (Frontiers in Pharmacology, 2025).

What was measured:
Kv10.1 [1] = target: T1, Kv10.1 (Homo sapiens, UniProt O95259); assay: whole-cell patch-clamp, HEK293 cells stably expressing human Kv10.[…]; assay type: cell-based
T1 construct: gene KCNH1
T1 sequence (O95259 1-989): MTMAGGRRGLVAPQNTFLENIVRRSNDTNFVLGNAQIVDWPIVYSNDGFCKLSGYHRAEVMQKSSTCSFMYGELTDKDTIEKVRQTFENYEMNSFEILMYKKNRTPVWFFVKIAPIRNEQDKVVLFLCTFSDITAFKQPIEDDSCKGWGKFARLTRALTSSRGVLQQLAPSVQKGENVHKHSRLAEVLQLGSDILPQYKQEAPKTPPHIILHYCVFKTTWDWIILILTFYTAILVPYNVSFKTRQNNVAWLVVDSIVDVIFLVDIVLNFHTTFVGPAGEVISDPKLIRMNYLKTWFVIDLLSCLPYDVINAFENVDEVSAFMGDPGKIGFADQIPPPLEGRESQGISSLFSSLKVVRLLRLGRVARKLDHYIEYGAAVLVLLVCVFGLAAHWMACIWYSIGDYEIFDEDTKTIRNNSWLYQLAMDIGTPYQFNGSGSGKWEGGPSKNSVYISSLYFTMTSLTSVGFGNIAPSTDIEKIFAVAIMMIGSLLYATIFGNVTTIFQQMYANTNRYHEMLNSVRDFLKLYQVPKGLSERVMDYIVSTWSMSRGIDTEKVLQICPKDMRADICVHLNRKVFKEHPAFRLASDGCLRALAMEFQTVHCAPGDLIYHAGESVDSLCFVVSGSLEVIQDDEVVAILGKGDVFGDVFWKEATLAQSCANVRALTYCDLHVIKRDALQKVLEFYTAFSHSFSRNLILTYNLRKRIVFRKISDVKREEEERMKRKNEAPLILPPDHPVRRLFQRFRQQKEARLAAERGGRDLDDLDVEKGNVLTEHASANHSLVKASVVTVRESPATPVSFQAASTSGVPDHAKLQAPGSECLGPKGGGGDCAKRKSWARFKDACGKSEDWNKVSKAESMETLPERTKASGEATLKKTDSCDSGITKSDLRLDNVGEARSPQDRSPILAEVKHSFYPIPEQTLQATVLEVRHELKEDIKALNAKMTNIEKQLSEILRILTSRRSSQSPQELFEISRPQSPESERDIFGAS

Kv10.1 [2] = target: T1, Kv10.1; assay: FLIPR membrane potential fluorescence assay in HEK-Kv10.[…] cells, single concentration ([…]); assay type: cell-based; settings: read-out: % decrease in response amplitude at 100 μM

Row | SMILES | IC50 (Kv10.1 [1]) [nM] | inhibition at 100 µM (Kv10.1 [2]) [%]
1 | OC1(c2ccc(Cl)c(C(F)(F)F)c2)CCN(CCCC(c2ccc(F)cc2)c2ccc(F)cc2)CC1 [PNFL, penfluridol] | 2700 ± 300 | 
2 | CN(C)C(=O)C(CCN1CCC(O)(c2ccc(Cl)cc2)CC1)(c1ccccc1)c1ccccc1 [LP, loperamide] |  | 46.1
